{
  "source": "patent US9926585B2",
  "about": "“Method for producing a minor ginsenoside using a ginsenoside glycosidase” (INTELLIGENT SYNTHETIC BIOLOGY CENTER, priority 2015, dated 2018)",
  "molecules": {"B1": {"name": "MT619: ginsenoside glycosidase of SEQ ID NO: 1 screened from Microbacterium testaceum, 619 amino acids (protein, listed as Microbacterium testaceum)", "chain": "MTHARFLTAPDGTRFRDLNGNGVMDPYENPALSVEERTDDLVSRLSLEEKVGLMFQTVIEVGDEGELLEAPGKISKSPTTTVVVGKHMNHFNVHAIRTARQAATWNNNLQALAETTPHGIPVTISTDPRHAFVENTGVAFSAGPFSQWPEGLGLAALDDVDTVREFAEVARREYVAVGIRAALHPQIDLATEPRWGRQAQTLGQDAARVTEFTAAYLQGFQGDELGPDSVACTTKHFPGGGPQLDGEDAHFPYGREQVYPGGMFDYHLEPFREAIRCGTAGMMPYYGMPVGLEVDGLPIEEVGFGYNRQIITGLLREQLGYDGVVVTDWELVNDNHVGDQVLPARAWGVEHLSAVERMEKILDAGSDQFGGEECVEMLVDLVRAGRVSEERIDESVRRLLRVKFQLGLFDDPYVDVDEAERIVGNAEFRALGERAQAHSLTVLVNEGDVLPLRPAGAVYIEGFRPDDVAELGRVVTDPAEADLAIVRIGAPFDPRDDLFLEAWFHQGSLEFAPGLVYRLQQIAASCPLILVVNLDRPAILTPFVGHAAAIVADYGSSSAAVLDALTGRVPPRGRLPIEIPRSMDAVRSSREDVPSDTGDPVFPVHHGVELKVSTGAQRG"}},
  "key": {"[1]": {"tested_on": "ginsenoside glycosidase MT619", "assay": "Effects of metals and chemical reagents on MT619 activity (residual activity, pNPG substrate)", "format": "biochemical, Microbacterium testaceum"}, "[2]": {"tested_on": "ginsenoside glycosidase MT619", "assay": "Ginsenoside conversion ability of MT619 (TLC)", "format": "biochemical, Microbacterium testaceum", "conditions": "2.0 mg/ml MT619, 2.0 mg/ml substrate, 37° C., 1.5 hr", "protocol": "In order to analyze the specificity and selectivity of the enzyme for the hydrolysis of a sugar attached at the C-6 position of ginsenoside, ginsenoside Re, Rg1 and Rg2 were used as the substrates.\n2.0 mg/ml of MT619 in 50 mM sodium phosphate buffer (pH 7.0) was reacted with each 2.0 mg/ml of the three substrates in 50 mM sodium phosphate (pH 6.0) at an equal volume at 37° C. In order to measure cleavage activity of MT619, the samples were collected at 1.5 hr after reaction, and an equal volume of water-saturated butanol was added to stop the reaction. The n-butanol fraction was evaporated to dryness, and residual material was dissolved in CH3OH and then examined by thin layer chromatography (TLC), and the results are given in FIG. 4."}, "[3]": {"tested_on": "ginsenoside glycosidase MT619", "assay": "Substrate specificity of MT619 with chromogenic ONP and PNP substrates", "format": "biochemical, Microbacterium testaceum", "conditions": "for substrate specificity of MT619: 2.0 mM substrate, 37° C.; for Relative activity (%) MT619: final substrate concentration 2.0 mM, 37° C. for 5 minutes, relative to enzymatic activity for pNP-β-D-glucopyranoside", "protocol": "In order to analyze substrate specificity of […], 2.0 mM chromogenic O-nitrophenyl (ONP) and p-nitrophenyl (PNP) were used as substrates, and measured at 37° C. for 5 minutes. 1 activity unit was defined as the release of 1 μmol of o-nitrophenol or p-nitrophenol per minute. Substrates used for analysis were pNP-α-L-arabinofuranoside, pNP-β-L-arabinopyranoside, pNP-α-L-D-fucopyranoside, pNP-α-L-rhamnopyranoside, pNP-α-D-glucopyranoside, pNP-α-D-mannopyranoside, pNP-β-D-galactopyranoside, oNP-β-D-glucopyranoside, oNP-β-D-fucopyranoside, pNP-β-D-xylopyranoside, pNP-β-L-arabinofuranoside, oNP-β-D-fucopyranoside, oNP-α-D-galactopyranoside, and pNP-β-D-glucopyranoside, which were purchased from Sigma."}, "[4]": {"assay": "Effect of pH on enzymatic activity and stability of MT619", "format": "biochemical", "protocol": "In order to measure the effect of pH on the enzymatic activity of MT619, 2.0 mM pNPGlc (p-nitrophenyl-D-glucopyranoside; Sigma) was used as a substrate, and pH was adjusted using the following buffer (50 mM). pH range of 2 to 10: KCl—HCl (pH 2), glycine-HCl (pH 3), sodium acetate (pH 4 and pH 5), sodium phosphate (pH 6 and pH 7), Tris-HCl (pH 8 and pH 9) and glycine-sodium hydroxide (pH 10).\nFurther, the effect of pH on the enzymatic stability was measured. Enzyme was incubated in each of the above mentioned buffers at 4° C. for 24 hours, and then pNPGlc was analyzed in 50 mM potassium buffer to measure the enzymatic stability according to pH change. Residual activity was analyzed according to a standard analytical procedure, and the results are given in FIG. 2 as an activity percentage obtained at the optimum pH."}, "[5]": {"format": "biochemical", "conditions": "2.0 mM pNPGlc, 50 mM potassium phosphate buffer, 10 minutes, 4 to 65° C.", "protocol": "In order to measure the effect of temperature on the enzymatic activity of MT619, 2.0 mM pNPGlc (p-nitrophenyl-3-Dglucopyranoside; Sigma) was used to analyze the temperature-dependent activity in the 50 mM potassium phosphate buffer at the optimum pH for 10 minutes while varying the temperature between 4 to 65° C.\nFurther, in order to measure the effect of temperature on the enzymatic stability of MT619, the equivalent amount of enzyme was incubated in 50 mM potassium phosphate buffer within the same temperature range for 30 minutes. In detail, the sample was cooled in ice for 10 minutes, and temperature stability analysis was performed by measuring the residual activity according to a standard analytical procedure, and the results are given in FIG. 3."}, "[6]": {"assay": "F1 production ability from ginsenoside Rg1, MT619 compared with BgpA", "format": "biochemical", "text": "In order to evaluate production ability of MT619 to produce F1 by using Rg1 as a substrate, its F1 production ability was compared with that of ginsenoside glucosidase derived from […].\nBgpA derived from Terrabacter ginsenosidimutans, which is known to produce F1 by using ginsenoside Rg1 as a substrate, was used as a comparative control group."}, "[7]": {"conditions": "10 mM reagent, 37° C. for 30 minutes, pNPG substrate, residual activity as percentage of activity without the compounds"}},
  "note": "“Also recorded” adds a separate entry of the source. Like-named read-outs stand apart in the source and are kept apart here.",
  "data": [
    {"molecule": "O[C@H](CS)[C@H](O)CS", "note": "(racemic) [DTT, dithiothreitol]", "values": [
      {"measurement": "Relative activity (%)", "setting": "[1]; [7]", "value": "79.6 ± 1.6", "unit": "%"}
    ]},
    {"molecule": "OCCS", "note": "[Beta-Mercaptoethanol]", "values": [
      {"measurement": "Relative activity (%)", "setting": "[1]; [7]", "value": "94 ± 2", "unit": "%"}
    ]},
    {"molecule": "[Ca+2].[Cl-].[Cl-]", "note": "[CaCl2]", "values": [
      {"measurement": "Relative activity (%)", "setting": "[1]; [7]", "value": "132.8 ± 2.4", "unit": "%"},
      {"measurement": "effect of ions on enzymatic activity of MT619", "setting": "[1]; 10 mM, 37° C., 30 minutes, listed as Ca^2+", "value": "did not greatly increase; also recorded: not greatly increased"}
    ]},
    {"molecule": "[Cl-].[Cl-].[Co+2]", "note": "[CoCl2]", "values": [
      {"measurement": "Relative activity (%)", "setting": "[1]", "value": "17.9 ± 0.5", "unit": "%"},
      {"measurement": "effect of ions on enzymatic activity of MT619", "setting": "[1]", "value": "strongly inhibited"}
    ]},
    {"molecule": "[Cl][Cu][Cl]", "note": "[CuCl2]", "values": [
      {"measurement": "effect of ions on enzymatic activity of MT619", "setting": "[1]; 10 mM, 37° C., 30 minutes", "value": "strongly inhibited"}
    ]},
    {"molecule": "O=C(O)CN(CCN(CC(=O)O)CC(=O)O)CC(=O)O", "note": "[EDTA]", "values": [
      {"measurement": "Relative activity (%)", "setting": "[1]", "value": "80.9 ± 2.3", "unit": "%"}
    ]},
    {"molecule": "[Cl][Hg][Cl]", "note": "[HgCl2]", "values": [
      {"measurement": "effect of ions on enzymatic activity of MT619", "setting": "[1]; 10 mM, 37° C., 30 minutes", "value": "strongly inhibited"}
    ]},
    {"molecule": "[Cl-].[K+]", "note": "[KCl]", "values": [
      {"measurement": "Relative activity (%)", "setting": "[1]; [7]", "value": "95.3 ± 1.1", "unit": "%"},
      {"measurement": "effect of ions on enzymatic activity of MT619", "setting": "[1]; 10 mM, 37° C., 30 minutes, listed as K^+", "value": "did not greatly increase; also recorded: not greatly increased"}
    ]},
    {"molecule": "[Cl-].[Cl-].[Mg+2]", "note": "[MgCl2]", "values": [
      {"measurement": "Relative activity (%)", "setting": "[1]; [7]", "value": "112.7 ± 4.1", "unit": "%"}
    ]},
    {"molecule": "[Cl][Mn][Cl]", "note": "[MnCl2]", "values": [
      {"measurement": "Relative activity (%)", "setting": "[1]; [7]", "value": "59.9 ± 2.6", "unit": "%"}
    ]},
    {"molecule": "[Cl-].[Na+]", "note": "[Nacl, NaCl]", "values": [
      {"measurement": "Relative activity (%)", "setting": "[1]; [7]", "value": "128.1 ± 3.7", "unit": "%"},
      {"measurement": "effect of ions on enzymatic activity of MT619", "setting": "[1]; 10 mM, 37° C., 30 minutes, listed as Na^+", "value": "did not greatly increase; also recorded: not greatly increased"}
    ]},
    {"molecule": "CC(C)=CCC[C@](C)(O[C@@H]1O[C@H](CO)[C@@H](O)[C@H](O)[C@H]1O)[C@H]1CC[C@]2(C)[C@@H]1[C@H](O)C[C@@H]1[C@@]3(C)CC[C@H](O)C(C)(C)[C@@H]3[C@@H](O[C@@H]3O[C@H](CO)[C@@H](O)[C@H](O)[C@H]3O[C@@H]3O[C@@H](C)[C@H](O)[C@@H](O)[C@H]3O)C[C@]12C", "note": "[Re, ginsenoside Re]", "values": [
      {"measurement": "conversion of ginsenoside by MT619 (TLC, words)", "setting": "[2]", "value": "converted into ginsenoside F1"}
    ]},
    {"molecule": "CC(C)=CCC[C@](C)(O[C@@H]1O[C@H](CO)[C@@H](O)[C@H](O)[C@H]1O)[C@H]1CC[C@]2(C)[C@@H]1[C@H](O)C[C@@H]1[C@@]3(C)CC[C@H](O)C(C)(C)[C@@H]3[C@@H](O[C@@H]3O[C@H](CO)[C@@H](O)[C@H](O)[C@H]3O)C[C@]12C", "note": "[Rg1, ginsenoside Rg1]", "values": [
      {"measurement": "conversion of ginsenoside by MT619 (TLC, words)", "setting": "[2]", "value": "conversion of ginsenoside Rg1 into F1 was confirmed; also recorded: converted into ginsenoside F1"}
    ]},
    {"molecule": "CCCCCCCCCCCCOS(=O)(=O)[O-].[Na+]", "note": "[SDS]", "values": [
      {"measurement": "Relative activity (%)", "setting": "[1]; [7]", "value": "80.6 ± 6.1", "unit": "%"}
    ]},
    {"molecule": "[Cl-].[Cl-].[Zn+2]", "note": "[ZnCl2]", "values": [
      {"measurement": "effect of ions on enzymatic activity of MT619", "setting": "[1]; 10 mM, 37° C., 30 minutes", "value": "strongly inhibited"}
    ]},
    {"molecule": "O=[N+]([O-])c1ccccc1O[C@@H]1O[C@H](CO)[C@@H](O)[C@H](O)[C@H]1O", "note": "[oNP-β-glucopyranoside, oNP-β-D-glucopyranoside]", "values": [
      {"measurement": "substrate specificity of MT619", "setting": "[3]", "value": "showed substrate specificity"},
      {"measurement": "Relative activity (%) MT619", "setting": "[3]", "value": "28.7 ± 2.1", "unit": "%"}
    ]},
    {"molecule": "O=[N+]([O-])c1ccc(O[C@@H]2O[C@H](CO)[C@@H](O)[C@H](O)[C@H]2O)cc1", "note": "[pNP-β-D-glucopyranoside, p-nitrophenyl-β-D-glucopyranoside]", "values": [
      {"measurement": "substrate specificity of MT619", "setting": "[3]", "value": "highest substrate specificity"},
      {"measurement": "Relative activity (%) MT619", "setting": "[3]", "value": "100 ± 1.2", "unit": "%"}
    ]},
    {"molecule": "B1", "values": [
      {"measurement": "pH of highest activity and stability", "setting": "[4]; pH 2 to 10 buffers 50 mM, stability after 4° C. for 24 hours", "value": 7.0},
      {"measurement": "pH of highest stability", "setting": "[4]; summary statement of Example 3-2", "value": 7.0},
      {"measurement": "temperature of highest activity (optimum temperature)", "setting": "[5]", "value": 45, "unit": "°C"},
      {"measurement": "time of highest F1 production ability after initiation of the reaction", "setting": "[6]; enzyme 0.1 mg/ml, Rg1 substrate", "value": 2, "unit": "h"},
      {"measurement": "F1 produced", "setting": "[6]; enzyme concentration 0.1 mg/ml, Rg1 (2.0 mg/ml) as substrate", "value": 1.3, "unit": "mg"},
      {"measurement": "production of F1 relative to BgpA", "setting": "[6]; enzyme concentration 0.1 mg/ml, Rg1 as substrate", "value": 7, "unit": "times"}
    ]}
  ]
}
